Test results from publication PMC7377239, “Cardiovascular Effects of Polychlorinated Biphenyls and Their Major Metabolites” (Environmental Health Perspectives, 2020).
Counter-ions that a name gives are not always drawn. Like-named read-outs stand apart in the source and are kept apart here.

Tested on: iCell cardiomyocytes (human iPSC-derived cardiomyocytes)
Test: Intracellular Ca2+ flux / beating parameters in iCell cardiomyocytes (FLIPR tetra), 90 min or 24 h
Type: cell-based
Settings: Homo sapiens, Cardiomyocyte, 0.00 µM = 100.00; for activity at 0.1 µM: 0.10 µM
Procedure, shortened: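 Gelatin-plated iCell cardiomyocytes (5,000/well) were dye-loaded for 2 h at 37 °C, then exposed for 90 min or 24 h to PCBs/metabolites (5× plates at 0.05–500 µM; 0.5% DMSO final) in triplicate. Ca2+ flux was read for 100 s at 8 Hz and 37 °C. Peak height, frequency, spacing CV and decay/rise ratio were vehicle-normalized and fitted with a four-parameter logistic model, with POD set at 1 SD of vehicle.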

[1] = 1.5 h, read-out: cm.amp.avg.90min
[2] = 1.5 h, read-out: cm.amp.cv.90min
[3] = 1.5 h, read-out: cm.decay.rise.90min
[4] = 1.5 h, read-out: cm.spacing.cv.90min
[5] = 24 h, read-out: cm.amp.avg.24hrs
[6] = 24 h, read-out: cm.amp.cv.24hrs
[7] = 24 h, read-out: cm.decay.rise.24hrs
[8] = 24 h, read-out: cm.spacing.cv.24hrs

## O=S(=O)(O)Oc1ccc(-c2ccc(Cl)cc2)cc1 [4'-yl PCB 3 sulfate]
[1]
  activity at 0.01 µM: 91%
  activity at 0.1 µM: 100%
  activity at 1 µM: 98%
  activity at 10 µM: 93%
  activity at 100 µM: 0%
[2]
  activity at 0.01 µM: 97%
  activity at 0.1 µM: 92%
  activity at 1 µM: 75.3%
  activity at 10 µM: 105%
  activity at 100 µM: 0%
1.5 h, read-out: cm.bpm.90min
  activity at 0.01 µM: 100%
  activity at 0.1 µM: 100%
  activity at 1 µM: 100%
  activity at 10 µM: 104%
  activity at 100 µM: 0%
[3]
  activity at 0.01 µM: 100%
  activity at 0.1 µM: 98.1%
  activity at 1 µM: 95.6%
  activity at 10 µM: 97.7%
  activity at 100 µM: 0%
[4]
  activity at 0.01 µM: 138%
  activity at 0.1 µM: 107%
  activity at 1 µM: 90.9%
  activity at 10 µM: 104%
  activity at 100 µM: 0%
[5]
  activity at 0.01 µM: 114%
  activity at 0.1 µM: 46.3%
  activity at 1 µM: 68%
  activity at 10 µM: 89.3%
  activity at 100 µM: 112%
[6]
  activity at 0.01 µM: 86.7%
  activity at 0.1 µM: 44.4%
  activity at 1 µM: 33.8%
  activity at 10 µM: 96.4%
  activity at 100 µM: 68.8%
24 h, read-out: cm.bpm.24hrs
  activity at 0.01 µM: 102%
  activity at 0.1 µM: 47.7%
  activity at 1 µM: 46.8%
  activity at 10 µM: 101%
  activity at 100 µM: 79.2%
[7]
  activity at 0.01 µM: 89.3%
  activity at 0.1 µM: 52.8%
  activity at 1 µM: 51.1%
  activity at 10 µM: 105%
  activity at 100 µM: 113%
[8]
  activity at 0.01 µM: 96.8%
  activity at 0.1 µM: 48.2%
  activity at 1 µM: 55.8%
  activity at 10 µM: 108%
  activity at 100 µM: 103%
